Assay results taken from PubChem BioAssay (NCI).
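48-hour exposure; five concentrations; linearly interpolated endpoints. At the TGI there is no net growth.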

Columns and labels:
Assay in all cases: inhibition of tumour cell growth, NCI panel, 48 h
LXFL 529 NSCLC = system: LXFL 529 NSCLC
UACC-257 melanoma = system: UACC-257 melanoma
K-562 leukemia = system: K-562 leukemia
DLD-1 colon = system: DLD-1 colon
KM12 colon = system: KM12 colon
ACHN renal = system: ACHN renal
MOLT-4 leukemia = system: MOLT-4 leukemia
SR leukemia = system: SR leukemia
OVCAR-3 ovarian = system: OVCAR-3 ovarian

Measured: TGI

CC(C)C(=O)Nc1nc2c(ncn2C2OC(CO)C(O)C2O)c(=O)[nH]1 (stereo not drawn)
> 100 µM: all assays above

O=Cc1ccc2c(c1-c1c(C=O)ccc3c1OCO3)OCO2
> 100 µM: all assays above
